The target in assay [1] is Tyrosine-protein kinase Fyn (Homo sapiens) (UniProt P06241). Nature of the assay: Inhibition of partial length wild type human FYN expressed in bacterial system assessed as enzyme activity at 1 uM relative to control. Details: scale not given: the % may be the effect or the level left.
For assay [2], the target named is Dual specificity protein kinase CLK2 (Homo sapiens) (UniProt P49760). Nature of the assay: Inhibition of partial length wild type human CLK2 expressed in bacterial system assessed as enzyme activity at 1 uM relative to control. Also noted: scale not given: the % may be the effect or the level left.
Dual specificity protein kinase CLK2 (Homo sapiens), sequence (P49760 whole entry, looked up): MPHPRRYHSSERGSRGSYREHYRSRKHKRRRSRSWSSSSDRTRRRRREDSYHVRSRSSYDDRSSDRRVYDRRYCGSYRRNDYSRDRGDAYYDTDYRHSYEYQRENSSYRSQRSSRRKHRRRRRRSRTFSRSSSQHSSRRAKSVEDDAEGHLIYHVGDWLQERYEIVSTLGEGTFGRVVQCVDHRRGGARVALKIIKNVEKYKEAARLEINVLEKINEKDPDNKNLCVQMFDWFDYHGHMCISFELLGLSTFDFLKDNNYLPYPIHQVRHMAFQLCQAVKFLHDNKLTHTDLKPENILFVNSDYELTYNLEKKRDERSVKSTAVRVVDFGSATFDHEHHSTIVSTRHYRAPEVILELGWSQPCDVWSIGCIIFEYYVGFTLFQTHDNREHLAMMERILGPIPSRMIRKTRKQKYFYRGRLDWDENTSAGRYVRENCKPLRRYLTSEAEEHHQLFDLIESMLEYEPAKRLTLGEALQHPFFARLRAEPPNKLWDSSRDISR
Assay [3] concerns the target Serine/threonine-protein kinase Chk1 (Homo sapiens) (UniProt O14757). Nature of the assay: Inhibition of partial length wild type human CHEK1 expressed in bacterial system assessed as enzyme activity at 1 uM relative to control. Details: scale not given: the % may be the effect or the level left.
Assay [4] concerns the target Serine/threonine-protein kinase B-raf (Homo sapiens, UniProt P15056). Nature of the assay: Inhibition of wild type B-Raf in human MIAPaCa2 cells assessed as reduction in ERK phosphorylation preincubated for 1 hr by Western blot method. It counts as cell-based, MIA PaCa-2. (Immunoblotting shows a protein as a band on a membrane.)
The target of assay [5] is Ephrin type-A receptor 2 (Homo sapiens) (UniProt P29317). Nature of the assay: Inhibition of partial length wild type human EPHA2 expressed in bacterial system assessed as enzyme activity at 1 uM relative to control. Details: scale not given: the % may be the effect or the level left.
Assay [6] has as its target Phosphatidylinositol 4,5-bisphosphate 3-kinase catalytic subunit delta isoform (Homo sapiens) (UniProt O00329). Nature of the assay: Inhibition of partial length wild type human PIK3CD expressed in mammalian system assessed as enzyme activity at 1 uM relative to control. Details: scale not given: the % may be the effect or the level left.
Assay [7] has as its target Dual specificity tyrosine-phosphorylation-regulated kinase 1B (Homo sapiens) (UniProt Q9Y463). Nature of the assay: Inhibition of partial length wild type human DYRK1B expressed in bacterial system assessed as enzyme activity at 1 uM relative to control. Details: scale not given: the % may be the effect or the level left.
The target of assay [8] is Death-associated protein kinase 1 (Homo sapiens) (UniProt P53355). Nature of the assay: Inhibition of partial length wild type human DAPK1 expressed in bacterial system assessed as enzyme activity at 1 uM relative to control. Details: scale not given: the % may be the effect or the level left.
Assay [9] addresses Wee1-like protein kinase (Homo sapiens) (UniProt P30291). Nature of the assay: Inhibition of partial length wild type human WEE1 expressed in bacterial system assessed as enzyme activity at 1 uM relative to control. Also noted: scale not given: the % may be the effect or the level left.

pEC50: −log10 of the molar value.

One compound from ChEMBL document CHEMBL3797029, “Purinylpyridinylamino-based DFG-in/αC-helix-out B-Raf inhibitors: Applying mutant versus wild-type B-Raf selectivity indices for compound profiling” (Bioorg Med Chem, 2016) can be followed below.

As usually defined, the pEC50 is −log10 of the EC50, conventionally taken in molar units.

Serine/threonine-protein kinase Chk1 (Homo sapiens), sequence (O14757 whole entry): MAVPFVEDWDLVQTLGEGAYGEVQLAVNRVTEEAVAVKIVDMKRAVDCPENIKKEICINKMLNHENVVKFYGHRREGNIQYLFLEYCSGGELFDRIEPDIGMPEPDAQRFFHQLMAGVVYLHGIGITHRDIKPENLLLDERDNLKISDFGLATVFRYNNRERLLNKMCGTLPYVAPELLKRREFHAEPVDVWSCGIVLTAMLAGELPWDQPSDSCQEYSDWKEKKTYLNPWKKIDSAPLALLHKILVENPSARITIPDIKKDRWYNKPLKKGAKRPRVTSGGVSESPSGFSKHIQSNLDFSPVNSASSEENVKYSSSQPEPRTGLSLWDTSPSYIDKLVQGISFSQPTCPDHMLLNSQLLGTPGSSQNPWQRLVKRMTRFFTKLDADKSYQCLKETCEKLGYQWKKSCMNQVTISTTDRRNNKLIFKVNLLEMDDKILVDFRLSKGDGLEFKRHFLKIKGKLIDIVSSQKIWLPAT
Wee1-like protein kinase (Homo sapiens), sequence (P30291 whole entry, looked up): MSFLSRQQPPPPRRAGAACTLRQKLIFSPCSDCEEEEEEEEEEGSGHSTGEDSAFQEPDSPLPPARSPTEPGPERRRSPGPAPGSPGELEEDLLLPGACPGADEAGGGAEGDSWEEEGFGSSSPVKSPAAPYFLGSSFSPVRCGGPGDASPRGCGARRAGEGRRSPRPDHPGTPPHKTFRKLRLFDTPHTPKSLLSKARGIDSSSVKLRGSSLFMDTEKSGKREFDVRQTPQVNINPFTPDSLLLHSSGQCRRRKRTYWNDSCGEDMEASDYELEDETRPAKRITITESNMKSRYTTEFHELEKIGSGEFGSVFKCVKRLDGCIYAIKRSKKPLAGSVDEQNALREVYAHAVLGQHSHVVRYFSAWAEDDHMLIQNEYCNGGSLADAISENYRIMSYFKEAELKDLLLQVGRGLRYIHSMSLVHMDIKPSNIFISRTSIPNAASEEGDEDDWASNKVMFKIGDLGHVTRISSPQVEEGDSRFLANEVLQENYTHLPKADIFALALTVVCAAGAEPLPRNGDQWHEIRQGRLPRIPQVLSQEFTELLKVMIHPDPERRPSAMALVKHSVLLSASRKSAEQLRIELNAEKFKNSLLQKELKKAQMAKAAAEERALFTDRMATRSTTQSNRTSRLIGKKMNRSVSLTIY
Phosphatidylinositol 4,5-bisphosphate 3-kinase catalytic subunit delta isoform (Homo sapiens), sequence (O00329 whole entry, canonical isoform): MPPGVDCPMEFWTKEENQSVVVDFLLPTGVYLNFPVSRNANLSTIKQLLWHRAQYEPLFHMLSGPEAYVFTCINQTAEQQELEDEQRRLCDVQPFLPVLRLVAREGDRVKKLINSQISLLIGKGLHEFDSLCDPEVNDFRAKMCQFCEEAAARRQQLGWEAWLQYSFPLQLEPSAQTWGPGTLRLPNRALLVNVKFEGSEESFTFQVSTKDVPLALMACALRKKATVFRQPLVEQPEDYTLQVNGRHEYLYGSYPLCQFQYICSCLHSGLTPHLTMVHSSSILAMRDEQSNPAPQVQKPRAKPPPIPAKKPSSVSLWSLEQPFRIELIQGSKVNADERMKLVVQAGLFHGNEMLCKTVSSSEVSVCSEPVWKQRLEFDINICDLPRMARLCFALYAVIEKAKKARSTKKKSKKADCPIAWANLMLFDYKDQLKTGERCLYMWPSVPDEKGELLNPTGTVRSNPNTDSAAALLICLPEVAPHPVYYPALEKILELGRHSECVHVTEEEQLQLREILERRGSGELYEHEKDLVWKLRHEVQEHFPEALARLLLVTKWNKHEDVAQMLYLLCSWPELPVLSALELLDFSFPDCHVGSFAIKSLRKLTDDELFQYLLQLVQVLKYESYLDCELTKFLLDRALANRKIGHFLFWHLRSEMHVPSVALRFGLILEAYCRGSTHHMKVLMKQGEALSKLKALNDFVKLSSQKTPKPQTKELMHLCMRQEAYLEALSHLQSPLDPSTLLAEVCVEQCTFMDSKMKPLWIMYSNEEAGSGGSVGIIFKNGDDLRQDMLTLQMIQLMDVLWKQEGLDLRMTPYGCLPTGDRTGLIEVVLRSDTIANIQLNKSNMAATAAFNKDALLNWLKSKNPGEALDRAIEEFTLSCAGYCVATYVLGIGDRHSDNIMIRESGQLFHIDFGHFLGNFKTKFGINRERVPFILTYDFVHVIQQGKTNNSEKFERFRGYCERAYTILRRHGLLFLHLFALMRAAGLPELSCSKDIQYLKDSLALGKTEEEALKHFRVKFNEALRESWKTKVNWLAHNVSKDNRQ
Dual specificity tyrosine-phosphorylation-regulated kinase 1B (Homo sapiens), sequence (Q9Y463 whole entry, looked up): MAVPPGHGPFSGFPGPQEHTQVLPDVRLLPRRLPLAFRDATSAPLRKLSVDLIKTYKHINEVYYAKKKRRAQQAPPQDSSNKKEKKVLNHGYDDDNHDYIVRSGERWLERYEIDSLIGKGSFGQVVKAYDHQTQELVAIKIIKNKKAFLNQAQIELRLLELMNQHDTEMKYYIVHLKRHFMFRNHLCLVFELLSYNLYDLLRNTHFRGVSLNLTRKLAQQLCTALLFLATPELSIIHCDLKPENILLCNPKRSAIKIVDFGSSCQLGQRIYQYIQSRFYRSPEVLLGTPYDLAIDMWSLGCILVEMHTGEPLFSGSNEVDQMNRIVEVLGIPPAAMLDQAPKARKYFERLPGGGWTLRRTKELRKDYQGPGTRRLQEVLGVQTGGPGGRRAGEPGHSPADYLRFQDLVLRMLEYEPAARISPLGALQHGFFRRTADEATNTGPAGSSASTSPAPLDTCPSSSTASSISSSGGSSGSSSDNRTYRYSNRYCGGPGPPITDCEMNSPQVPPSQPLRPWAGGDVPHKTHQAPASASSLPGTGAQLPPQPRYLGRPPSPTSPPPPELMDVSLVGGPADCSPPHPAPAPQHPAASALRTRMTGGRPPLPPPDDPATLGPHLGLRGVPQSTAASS
Serine/threonine-protein kinase B-raf, sequence (P15056 whole entry): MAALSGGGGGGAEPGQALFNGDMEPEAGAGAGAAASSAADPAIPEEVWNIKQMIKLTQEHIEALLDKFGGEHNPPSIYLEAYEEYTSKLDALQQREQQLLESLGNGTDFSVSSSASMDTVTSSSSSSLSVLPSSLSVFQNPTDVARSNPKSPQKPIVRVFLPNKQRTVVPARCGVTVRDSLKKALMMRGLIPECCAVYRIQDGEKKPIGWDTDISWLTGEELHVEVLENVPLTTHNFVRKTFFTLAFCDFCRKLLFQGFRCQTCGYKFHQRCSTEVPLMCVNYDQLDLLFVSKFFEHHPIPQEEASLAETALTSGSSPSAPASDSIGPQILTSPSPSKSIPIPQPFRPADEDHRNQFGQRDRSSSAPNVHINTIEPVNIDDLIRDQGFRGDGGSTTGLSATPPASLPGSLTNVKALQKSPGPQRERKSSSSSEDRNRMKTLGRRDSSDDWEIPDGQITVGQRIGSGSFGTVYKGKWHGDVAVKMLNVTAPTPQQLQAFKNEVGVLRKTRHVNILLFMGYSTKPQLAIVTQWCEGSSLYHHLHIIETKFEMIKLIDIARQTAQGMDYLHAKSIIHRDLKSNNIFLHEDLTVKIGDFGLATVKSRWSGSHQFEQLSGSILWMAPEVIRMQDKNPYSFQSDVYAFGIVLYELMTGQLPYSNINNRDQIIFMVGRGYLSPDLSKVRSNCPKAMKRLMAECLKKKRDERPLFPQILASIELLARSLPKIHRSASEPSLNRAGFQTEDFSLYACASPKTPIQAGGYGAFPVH
Tyrosine-protein kinase Fyn (Homo sapiens), sequence (P06241 2-537 limits assumed): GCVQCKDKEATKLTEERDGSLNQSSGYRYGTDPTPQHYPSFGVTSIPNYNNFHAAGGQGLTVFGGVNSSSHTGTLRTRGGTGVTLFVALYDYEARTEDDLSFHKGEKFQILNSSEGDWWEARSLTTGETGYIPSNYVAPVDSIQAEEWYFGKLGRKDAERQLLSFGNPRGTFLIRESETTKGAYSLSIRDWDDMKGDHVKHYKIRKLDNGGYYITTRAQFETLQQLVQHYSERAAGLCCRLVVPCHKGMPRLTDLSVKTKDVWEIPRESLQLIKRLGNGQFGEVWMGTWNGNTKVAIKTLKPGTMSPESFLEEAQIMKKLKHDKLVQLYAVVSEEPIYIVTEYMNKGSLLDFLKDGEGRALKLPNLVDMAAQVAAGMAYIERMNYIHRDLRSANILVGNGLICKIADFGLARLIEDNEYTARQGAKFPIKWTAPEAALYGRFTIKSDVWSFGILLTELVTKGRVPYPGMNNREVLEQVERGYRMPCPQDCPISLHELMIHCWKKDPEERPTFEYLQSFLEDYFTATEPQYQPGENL

With `CN(C)S(=O)(=O)Nc1ccc(F)c(Nc2ncccc2-c2ncnc3[nH]cnc23)c1F`, the Activity in assay [1] was 64%; in assay [2], 79%; in assay [3] it was 86%; in assay [5] it was 74%; in assay [6] it was 37%; in [7], 99%. Besides, the Activity worked out at 100% in assay [8] and 90% in assay [9]. Moreover, the pEC50 in [4] is 5.75.
